Assay results taken from the kinase profiling compilation of Christmann-Franck et al. (2016).
Values joined by “and” are separate entries in the source; they are usually repeats but may differ in a detail not shown here. Equal entries are not always repeated.

Tests used:
Experiment in all cases: radiometric filter-binding kinase assay, Kinase HotSpot
Details in all cases: compound 0.5 µM; ATP 10 µM
CHUK (human) = CHUK (human) (UniProt O15111)
CDK3 CCNE1 (human) = CDK3 CCNE1 (human) (UniProt Q00526+P24864)
MLTK (human) = MLTK (human) (UniProt Q9NYL2)
MARK3 (human) = MARK3 (human) (UniProt P27448)
Chain of MARK3 (human) (P27448 whole entry, looked up): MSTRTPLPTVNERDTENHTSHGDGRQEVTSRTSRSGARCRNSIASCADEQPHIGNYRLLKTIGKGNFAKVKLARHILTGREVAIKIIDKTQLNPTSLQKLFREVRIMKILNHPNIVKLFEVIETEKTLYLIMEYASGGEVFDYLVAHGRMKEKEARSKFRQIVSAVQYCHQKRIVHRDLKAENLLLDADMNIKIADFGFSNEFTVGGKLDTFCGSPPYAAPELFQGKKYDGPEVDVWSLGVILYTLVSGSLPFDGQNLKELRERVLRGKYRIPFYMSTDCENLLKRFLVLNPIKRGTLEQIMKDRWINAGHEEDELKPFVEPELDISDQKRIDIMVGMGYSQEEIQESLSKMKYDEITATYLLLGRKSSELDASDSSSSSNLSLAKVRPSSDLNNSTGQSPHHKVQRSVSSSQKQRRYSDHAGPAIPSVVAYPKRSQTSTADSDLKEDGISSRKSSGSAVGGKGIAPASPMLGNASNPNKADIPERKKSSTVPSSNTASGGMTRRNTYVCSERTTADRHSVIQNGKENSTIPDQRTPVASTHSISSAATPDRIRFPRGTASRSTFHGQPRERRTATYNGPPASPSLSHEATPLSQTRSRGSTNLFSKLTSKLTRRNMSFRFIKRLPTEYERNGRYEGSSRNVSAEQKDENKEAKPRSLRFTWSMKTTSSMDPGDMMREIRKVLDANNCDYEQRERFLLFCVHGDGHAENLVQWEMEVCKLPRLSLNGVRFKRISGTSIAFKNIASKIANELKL

EPHB4 (human) = EPHB4 (human) (UniProt P54760)
LIMK1 (human) = LIMK1 (human) (UniProt P53667)
JAK2 JH1 JH2 (human) = JAK2 JH1 JH2 (human) (UniProt O60674)
Chain of JAK2 JH1 JH2 (human) (O60674 whole entry, looked up): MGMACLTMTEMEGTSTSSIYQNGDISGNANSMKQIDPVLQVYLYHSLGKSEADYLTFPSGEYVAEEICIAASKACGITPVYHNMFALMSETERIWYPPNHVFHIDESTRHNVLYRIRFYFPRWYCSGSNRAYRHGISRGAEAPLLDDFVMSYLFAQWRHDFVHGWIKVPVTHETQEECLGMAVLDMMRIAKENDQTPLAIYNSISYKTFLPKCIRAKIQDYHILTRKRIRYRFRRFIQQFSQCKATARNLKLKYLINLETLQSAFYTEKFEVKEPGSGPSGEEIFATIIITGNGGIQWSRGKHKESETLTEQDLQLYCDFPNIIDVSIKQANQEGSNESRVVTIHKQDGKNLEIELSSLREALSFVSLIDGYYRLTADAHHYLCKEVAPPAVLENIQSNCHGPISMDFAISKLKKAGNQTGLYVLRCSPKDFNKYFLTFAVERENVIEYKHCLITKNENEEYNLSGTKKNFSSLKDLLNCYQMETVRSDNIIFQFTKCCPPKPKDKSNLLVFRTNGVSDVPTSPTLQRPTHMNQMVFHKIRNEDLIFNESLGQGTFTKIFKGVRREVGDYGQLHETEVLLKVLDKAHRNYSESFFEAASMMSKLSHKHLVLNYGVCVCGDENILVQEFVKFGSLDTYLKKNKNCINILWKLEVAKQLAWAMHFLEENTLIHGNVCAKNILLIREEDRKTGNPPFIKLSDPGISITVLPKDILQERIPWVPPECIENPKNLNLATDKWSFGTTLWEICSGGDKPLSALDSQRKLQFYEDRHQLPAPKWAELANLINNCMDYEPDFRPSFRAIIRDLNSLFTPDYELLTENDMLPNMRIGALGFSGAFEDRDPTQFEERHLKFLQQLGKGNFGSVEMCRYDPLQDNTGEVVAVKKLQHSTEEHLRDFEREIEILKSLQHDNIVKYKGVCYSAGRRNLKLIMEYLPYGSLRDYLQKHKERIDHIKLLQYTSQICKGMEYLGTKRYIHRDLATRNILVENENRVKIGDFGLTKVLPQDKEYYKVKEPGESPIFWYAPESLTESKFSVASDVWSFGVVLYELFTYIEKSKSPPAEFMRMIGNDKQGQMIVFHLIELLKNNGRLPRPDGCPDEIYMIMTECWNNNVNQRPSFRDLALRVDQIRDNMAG

PRKG1 (human) = PRKG1 (human) (UniProt Q13976)
ERBB2 (human) = ERBB2 (human) (UniProt P04626)
AKT3 (human) = AKT3 (human) (UniProt Q9Y243)
CLK2 (human) = CLK2 (human) (UniProt P49760)
RET (human) = RET (human) (UniProt P07949)
Chain of RET (human) (P07949 whole entry, looked up): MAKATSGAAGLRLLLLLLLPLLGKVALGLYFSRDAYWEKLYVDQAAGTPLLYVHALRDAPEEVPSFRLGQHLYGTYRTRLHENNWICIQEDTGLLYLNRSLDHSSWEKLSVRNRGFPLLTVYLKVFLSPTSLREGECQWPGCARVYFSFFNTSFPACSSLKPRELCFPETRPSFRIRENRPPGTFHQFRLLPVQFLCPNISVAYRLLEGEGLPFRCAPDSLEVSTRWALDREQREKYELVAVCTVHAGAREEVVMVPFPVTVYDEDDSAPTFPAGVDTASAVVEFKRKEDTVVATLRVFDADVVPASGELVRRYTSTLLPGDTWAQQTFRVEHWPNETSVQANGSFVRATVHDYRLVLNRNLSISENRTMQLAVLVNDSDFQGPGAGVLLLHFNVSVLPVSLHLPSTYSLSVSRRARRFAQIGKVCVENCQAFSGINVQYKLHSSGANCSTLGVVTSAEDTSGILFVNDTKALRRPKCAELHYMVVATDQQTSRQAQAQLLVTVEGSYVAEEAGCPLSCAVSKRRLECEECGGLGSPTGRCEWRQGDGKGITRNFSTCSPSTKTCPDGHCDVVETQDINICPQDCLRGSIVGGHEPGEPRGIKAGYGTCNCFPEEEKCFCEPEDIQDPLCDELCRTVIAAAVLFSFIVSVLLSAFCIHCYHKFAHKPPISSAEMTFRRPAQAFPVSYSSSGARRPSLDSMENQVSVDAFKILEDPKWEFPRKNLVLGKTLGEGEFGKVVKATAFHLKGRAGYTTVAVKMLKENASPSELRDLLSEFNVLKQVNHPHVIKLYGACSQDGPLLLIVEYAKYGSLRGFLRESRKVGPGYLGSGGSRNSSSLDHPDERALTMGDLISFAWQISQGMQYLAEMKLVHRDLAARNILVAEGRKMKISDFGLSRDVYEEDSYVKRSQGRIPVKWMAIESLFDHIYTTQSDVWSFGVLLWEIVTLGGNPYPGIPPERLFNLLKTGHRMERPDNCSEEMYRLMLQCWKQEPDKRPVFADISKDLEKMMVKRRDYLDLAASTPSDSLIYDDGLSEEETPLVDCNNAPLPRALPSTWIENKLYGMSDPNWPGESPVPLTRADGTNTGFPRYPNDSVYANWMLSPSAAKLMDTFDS

PAK4 (human) = PAK4 (human) (UniProt O96013)
Chain of PAK4 (human) (O96013 whole entry, looked up): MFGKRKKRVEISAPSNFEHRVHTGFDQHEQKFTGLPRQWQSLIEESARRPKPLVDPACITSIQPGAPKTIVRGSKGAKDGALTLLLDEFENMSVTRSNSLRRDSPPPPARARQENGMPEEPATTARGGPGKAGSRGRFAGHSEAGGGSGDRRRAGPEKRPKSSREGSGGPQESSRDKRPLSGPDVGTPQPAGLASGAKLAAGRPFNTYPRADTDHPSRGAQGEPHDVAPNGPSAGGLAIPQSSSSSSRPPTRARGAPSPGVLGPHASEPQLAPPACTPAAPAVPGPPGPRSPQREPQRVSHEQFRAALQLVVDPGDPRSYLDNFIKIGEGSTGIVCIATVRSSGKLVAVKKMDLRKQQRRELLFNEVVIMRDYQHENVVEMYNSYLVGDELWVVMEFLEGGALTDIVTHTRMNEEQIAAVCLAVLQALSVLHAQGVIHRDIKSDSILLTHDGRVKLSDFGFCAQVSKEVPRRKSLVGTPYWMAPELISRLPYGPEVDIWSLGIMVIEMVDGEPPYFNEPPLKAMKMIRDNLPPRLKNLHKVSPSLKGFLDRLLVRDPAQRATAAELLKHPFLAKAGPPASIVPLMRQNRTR

[1] = target: JAK1 JH1 catalytic (human) (UniProt P23458)
INSRR (human) = INSRR (human) (UniProt P14616)
RPS6KA6 KD1 KD2 (human) = RPS6KA6 KD1 KD2 (human) (UniProt Q9UK32)
CSNK1G1 (human) = CSNK1G1 (human) (UniProt Q9HCP0)
Chain of CSNK1G1 (human) (Q9HCP0 whole entry, looked up): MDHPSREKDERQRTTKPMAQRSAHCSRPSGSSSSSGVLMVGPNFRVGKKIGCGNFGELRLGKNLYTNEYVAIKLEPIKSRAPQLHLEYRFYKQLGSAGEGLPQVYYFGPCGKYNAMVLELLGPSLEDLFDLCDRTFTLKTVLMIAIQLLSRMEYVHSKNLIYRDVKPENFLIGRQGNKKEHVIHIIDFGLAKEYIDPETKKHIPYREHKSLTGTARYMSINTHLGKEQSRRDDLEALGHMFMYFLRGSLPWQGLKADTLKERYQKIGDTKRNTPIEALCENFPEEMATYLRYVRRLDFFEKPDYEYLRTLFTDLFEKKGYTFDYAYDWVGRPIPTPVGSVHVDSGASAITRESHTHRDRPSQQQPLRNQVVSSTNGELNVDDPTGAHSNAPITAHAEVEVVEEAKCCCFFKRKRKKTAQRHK

TGFBR1 (human) = TGFBR1 (human) (UniProt P36897)
MAPK8 (human) = MAPK8 (human) (UniProt P45983)
CLK1 (human) = CLK1 (human) (UniProt P49759)
Chain of CLK1 (human) (P49759 whole entry, looked up): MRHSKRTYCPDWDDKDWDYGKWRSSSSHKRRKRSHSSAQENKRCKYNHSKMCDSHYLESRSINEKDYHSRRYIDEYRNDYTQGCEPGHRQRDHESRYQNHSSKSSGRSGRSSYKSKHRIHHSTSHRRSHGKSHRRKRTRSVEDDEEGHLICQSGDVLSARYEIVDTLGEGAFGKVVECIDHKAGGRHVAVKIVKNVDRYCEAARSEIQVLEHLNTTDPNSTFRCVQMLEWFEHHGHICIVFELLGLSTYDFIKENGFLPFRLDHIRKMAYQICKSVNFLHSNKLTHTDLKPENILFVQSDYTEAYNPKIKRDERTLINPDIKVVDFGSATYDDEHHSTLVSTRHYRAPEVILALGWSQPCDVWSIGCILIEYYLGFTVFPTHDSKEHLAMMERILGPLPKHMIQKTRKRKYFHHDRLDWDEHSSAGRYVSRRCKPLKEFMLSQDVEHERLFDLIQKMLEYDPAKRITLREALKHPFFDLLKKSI

ACVR1 (human) = ACVR1 (human) (UniProt Q04771)
LYN (human) = LYN (human) (UniProt P07948)
DYRK2 (human) = DYRK2 (human) (UniProt Q92630)
PTK2B (human) = PTK2B (human) (UniProt Q14289)
HCK (human) = HCK (human) (UniProt P08631)
Chain of HCK (human) (P08631 whole entry, looked up): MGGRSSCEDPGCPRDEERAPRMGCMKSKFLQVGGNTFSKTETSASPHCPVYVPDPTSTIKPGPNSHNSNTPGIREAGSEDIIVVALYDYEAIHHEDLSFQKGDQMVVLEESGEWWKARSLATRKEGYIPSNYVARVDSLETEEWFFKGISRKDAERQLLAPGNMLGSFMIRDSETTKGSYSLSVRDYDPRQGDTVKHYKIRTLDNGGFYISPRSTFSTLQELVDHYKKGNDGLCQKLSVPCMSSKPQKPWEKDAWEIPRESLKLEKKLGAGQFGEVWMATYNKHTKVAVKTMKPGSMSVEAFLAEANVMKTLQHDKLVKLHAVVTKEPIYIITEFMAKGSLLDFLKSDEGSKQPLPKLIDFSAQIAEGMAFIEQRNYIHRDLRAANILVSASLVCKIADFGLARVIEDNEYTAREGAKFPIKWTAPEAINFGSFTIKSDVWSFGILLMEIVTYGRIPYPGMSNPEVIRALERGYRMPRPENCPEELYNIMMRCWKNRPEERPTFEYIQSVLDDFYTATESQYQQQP

CLK3 (human) = CLK3 (human) (UniProt P49761)
VRK1 (human) = VRK1 (human) (UniProt Q99986)
MAP4K5 (human) = MAP4K5 (human) (UniProt Q9Y4K4)
PAK3 (human) = PAK3 (human) (UniProt O75914)
RPS6KA5 KD2 (human) = RPS6KA5 KD2 (human) (UniProt O75582)
PLK3 (human) = PLK3 (human) (UniProt Q9H4B4)
MAP3K10 (human) = MAP3K10 (human) (UniProt Q02779)
ULK1 (human) = ULK1 (human) (UniProt O75385)
ULK2 (human) = ULK2 (human) (UniProt Q8IYT8)
NTRK3 (human) = NTRK3 (human) (UniProt Q16288)
MAP3K5 (human) = MAP3K5 (human) (UniProt Q99683)
NEK2 (human) = NEK2 (human) (UniProt P51955)
PHKG1 (human) = PHKG1 (human) (UniProt Q16816)
TAOK1 (human) = TAOK1 (human) (UniProt Q7L7X3)
EPHB1 (human) = EPHB1 (human) (UniProt P54762)
TEC (human) = TEC (human) (UniProt P42680)
NEK6 (human) = NEK6 (human) (UniProt Q9HC98)

SMILES: Cc1cc2ncc(-c3ccccc3)nc2cc1C
- residual activity (CHUK (human)): 86.9%
- residual activity (CDK3 CCNE1 (human)): 96.7%
- residual activity (MLTK (human)): 102%
- residual activity (MARK3 (human)): 101%
- residual activity (EPHB4 (human)): 95.6%
- residual activity (LIMK1 (human)): 102%
- residual activity (JAK2 JH1 JH2 (human)): 97.3%
- residual activity (PRKG1 (human)): 86.2% and 93.7%
- residual activity (ERBB2 (human)): 97.4%
- residual activity (AKT3 (human)): 91.8%
- residual activity (CLK2 (human)): 102%
- residual activity (RET (human)): 88%
- residual activity (PAK4 (human)): 105%
- residual activity [1]: 103%
- residual activity (INSRR (human)): 95.5%
- residual activity (RPS6KA6 KD1 KD2 (human)): 98.2%
- residual activity (CSNK1G1 (human)): 85.7%
- residual activity (TGFBR1 (human)): 94.7%
- residual activity (MAPK8 (human)): 101%
- residual activity (CLK1 (human)): 95.4%
- residual activity (ACVR1 (human)): 91.8%
- residual activity (LYN (human)): 100% and 98.2%
- residual activity (DYRK2 (human)): 95.9%
- residual activity (PTK2B (human)): 92.1%
- residual activity (HCK (human)): 90.1%
- residual activity (CLK3 (human)): 92.8%
- residual activity (VRK1 (human)): 101%
- residual activity (MAP4K5 (human)): 89.3%
- residual activity (PAK3 (human)): 96.2%
- residual activity (RPS6KA5 KD2 (human)): 96.4%
- residual activity (PLK3 (human)): 90.1%
- residual activity (MAP3K10 (human)): 97.8%
- residual activity (ULK1 (human)): 84.1%
- residual activity (ULK2 (human)): 108%
- residual activity (NTRK3 (human)): 88.2%
- residual activity (MAP3K5 (human)): 107%
- residual activity (NEK2 (human)): 75.7%
- residual activity (PHKG1 (human)): 97.4%
- residual activity (TAOK1 (human)): 94.3%
- residual activity (EPHB1 (human)): 91.1%
- residual activity (TEC (human)): 98.1%
- residual activity (NEK6 (human)): 101%

SMILES: CC(C)n1cnc2c(Nc3cccc(Cl)c3)nc(NCCO)nc21
- residual activity (CHUK (human)): 96.1%
- residual activity (CDK3 CCNE1 (human)): 76.9%
- residual activity (MLTK (human)): 96.6%
- residual activity (MARK3 (human)): 92.3%
- residual activity (EPHB4 (human)): 82%
- residual activity (LIMK1 (human)): 105%
- residual activity (JAK2 JH1 JH2 (human)): 101%
- residual activity (PRKG1 (human)): 92.2% and 98.1%
- residual activity (ERBB2 (human)): 96.2%
- residual activity (AKT3 (human)): 99.9%
- residual activity (CLK2 (human)): 25%
- residual activity (RET (human)): 82.9%
- residual activity (PAK4 (human)): 105%
- residual activity [1]: 103%
- residual activity (INSRR (human)): 82.5%
- residual activity (RPS6KA6 KD1 KD2 (human)): 74.8%
- residual activity (CSNK1G1 (human)): 16%
- residual activity (TGFBR1 (human)): 97.7%
- residual activity (MAPK8 (human)): 94.8%
- residual activity (CLK1 (human)): 77.9%
- residual activity (ACVR1 (human)): 80.3%
- residual activity (LYN (human)): 80.2% and 94.6%
- residual activity (DYRK2 (human)): 93.9%
- residual activity (PTK2B (human)): 85%
- residual activity (HCK (human)): 78%
- residual activity (CLK3 (human)): 77.8%
- residual activity (VRK1 (human)): 96.3%
- residual activity (MAP4K5 (human)): 81.5%
- residual activity (PAK3 (human)): 96.7%
- residual activity (RPS6KA5 KD2 (human)): 87%
- residual activity (PLK3 (human)): 48.5%
- residual activity (MAP3K10 (human)): 90.3%
- residual activity (ULK1 (human)): 77.6%
- residual activity (ULK2 (human)): 89%
- residual activity (NTRK3 (human)): 30.7%
- residual activity (MAP3K5 (human)): 114%
- residual activity (NEK2 (human)): 97.6%
- residual activity (PHKG1 (human)): 75.8%
- residual activity (TAOK1 (human)): 94.4%
- residual activity (EPHB1 (human)): 76.9%
- residual activity (TEC (human)): 113%
- residual activity (NEK6 (human)): 101%

SMILES: Nc1n[nH]c2nnc(-c3c(-c4ccccc4)nn4ccccc34)cc12
- residual activity (CHUK (human)): 97.5%
- residual activity (CDK3 CCNE1 (human)): 96.8%
- residual activity (MLTK (human)): 101%
- residual activity (MARK3 (human)): 99.3%
- residual activity (EPHB4 (human)): 98.5%
- residual activity (LIMK1 (human)): 98.2%
- residual activity (JAK2 JH1 JH2 (human)): 97.1%
- residual activity (PRKG1 (human)): 89.5% and 93.6%
- residual activity (ERBB2 (human)): 105%
- residual activity (AKT3 (human)): 97.5%
- residual activity (CLK2 (human)): 94.9%
- residual activity (RET (human)): 93.7%
- residual activity (PAK4 (human)): 101%
- residual activity [1]: 104%
- residual activity (INSRR (human)): 95.7%
- residual activity (RPS6KA6 KD1 KD2 (human)): 95.5%
- residual activity (CSNK1G1 (human)): 109%
- residual activity (TGFBR1 (human)): 96.1%
- residual activity (MAPK8 (human)): 98%
- residual activity (CLK1 (human)): 108%
- residual activity (ACVR1 (human)): 107%
- residual activity (LYN (human)): 94.9% and 97.1%
- residual activity (DYRK2 (human)): 103%
- residual activity (PTK2B (human)): 95.4%
- residual activity (HCK (human)): 91.1%
- residual activity (CLK3 (human)): 94.9%
- residual activity (VRK1 (human)): 92.2%
- residual activity (MAP4K5 (human)): 50.3%
- residual activity (PAK3 (human)): 100%
- residual activity (RPS6KA5 KD2 (human)): 101%
- residual activity (PLK3 (human)): 100%
- residual activity (MAP3K10 (human)): 90.7%
- residual activity (ULK1 (human)): 97.1%
- residual activity (ULK2 (human)): 100%
- residual activity (NTRK3 (human)): 76.6%
- residual activity (MAP3K5 (human)): 99.3%
- residual activity (NEK2 (human)): 95.3%
- residual activity (PHKG1 (human)): 101%
- residual activity (TAOK1 (human)): 95.8%
- residual activity (EPHB1 (human)): 98.6%
- residual activity (TEC (human)): 96.1%
- residual activity (NEK6 (human)): 95.6%
